Results on 16 compounds are retold here after patent US6787562B2, “Substituted aryl and heteroaryl compounds as E-type prostaglandin antagonists” (Zeneca Ltd., priority 1995, dated 2004).

Each structure is given as a SMILES string.

Broadly, the melting point is the temperature of the solid-liquid transition.

Test system in one data set: not given
Conditions: not given
Regarding `CCN(Cc1ccccc1Oc1ccccc1)c1ccc(C(=O)O)cn1` [Example 13, 2-(N-ethyl-N-(2-phenoxybenzyl)amino)pyridine-5-carboxylic Acid], the melting point was in the range of 170.5 to 172 °C.

`O=C(O)c1ccc(CCCc2ccccc2Sc2ccccc2)cc1` [Example 32, 4-[3-(2-(phenylthio)phenyl)propyl]benzoic Acid] yielded a melting point of 90 to 91 °C.

As for `O=C(O)c1ccc(SCc2ccccc2OCc2ccccc2)cc1` [Example 18, 4-[2-Benzyloxybenzylthio]benzoic Acid], the melting point came out at 144 °C.

In turn, `O=C(O)c1ccc(CCc2ccccc2CCc2ccccc2)cc1O` [Example 33, 2-Hydroxy-4-[(2-phenethyl)phenethyl]benzoic Acid] returned a melting point of 134 to 137 °C.

As to `CC(Nc1cc(Br)ccc1OCc1ccccc1)c1ccc(C(=O)O)cc1` (centres unmarked) [Example 39, 4-[1-(N-(2-Benzyloxy-5-bromophenyl)-amino)ethyl]benzoic Acid], the melting point was in the range of 186.5 to 187 °C.

Regarding `O=C(O)c1ccc(OCc2ccccc2OCc2ccccc2)cc1` [Example 21, 4-(2-(Benzyloxy)benzyloxy)benzoic Acid], the melting point was 176.8 to 178.8 °C.

Regarding `CC(c1ccc(C(=O)O)cc1)N(C)c1ccc(Br)cc1OCc1ccccc1` (centres unmarked) [Example 40, 4-[1-(N-(2-Benzyloxy-4-bromophenyl)-N-methylamino)ethyl]benzoic Acid], the melting point was 181.5 to 182 °C.

The compound `O=C(O)c1ccc(CNc2cc(Br)ccc2OCc2ccccc2)cc1` [Example 37, 4-[N-(2-Benzyloxy-5-bromophenyl)aminomethyl]benzoic Acid] showed a melting point of 216 to 217 °C.

As for `O=C(O)c1ccc(OCc2ccccc2CCc2ccccc2)cc1` [Example 23, 4-(2-(phenethyl)benzyloxy)benzoic Acid], the melting point was in the range of 178 to 180 °C.

In the case of `CCN(Cc1ccccc1Oc1ccccc1)c1ccc(C(=O)O)nn1` [Example 12, 6-(N-Ethyl-N-(2-phenoxybenzyl)amino)pyridazine-3-carboxylic Acid], the melting point lay within 70 to 75 °C.

In turn, `O=C(O)c1ccc(CCCc2ccccc2Cc2ccccc2)cc1` [Example 34, 4-[3-(2-benzylphenyl)propyl]benzoic Acid] showed a melting point of 135 to 136 °C.

`O=C(O)c1ccc(NCc2cc(Br)ccc2CCc2ccccc2)cc1` [Example 4, 4-[N-(5-Bromo-2-(phenethyl)benzyl)amino]Benzoic Acid] displayed a melting point of 126 to 127 °C.

As to `CCN(Cc1ccc(C(=O)O)cc1)c1cc(Br)ccc1OCc1ccccc1` [Example 38, 4-[N-(2-Benzyloxy-5-bromophenyl)-N-ethylaminomethyl]benzoic Acid], the melting point is 94.5 to 95 °C.

The compound `CC(Oc1ccc(C(=O)O)cc1)c1ccccc1OCc1ccccc1` (centres unmarked) [Example 22, 4-(1-(2-(Benzyloxy)phenyl)ethoxy)benzoic Acid] displayed a melting point of 108 °C.

`O=C(Nc1cccnc1)c1ccc(SCc2ccccc2OCc2ccccc2)cc1` [Example 19, N-(3-Pyridyl)-4-[2-benzyloxybenzylthio]benzamide] gave a melting point of 108 °C.

In the next data set the test system is guinea pig ileum. To be noted: cited from earlier work.
Consider `CC(=O)NNC(=O)N1Cc2ccccc2Oc2ccc(Cl)cc21` [SC-19220], for which the “effect of PGE2 on tissue blocked” value is “blocks the effect of PGE2”.

The test system of a further data set is dog fundus. Particulars: cited from earlier work.
For `CC(=O)NNC(=O)N1Cc2ccccc2Oc2ccc(Cl)cc21` [SC-19220], the “effect of PGE2 on tissue blocked” value was “blocks the effect of PGE2”.
